Test results: patent publication US10196390B2, “TYK2 inhibitors and uses thereof” (Nimbus Lakshmi, Inc., priority 2014, dated 2019)
Where two headings read alike, the source gives them in different places.

Columns and labels:
[1] = system: JAK2-pSTAT5; assay: GM-CSF induced pSTAT5 in human PBMC; assay type: cell-based; details: read-out: JAK2-pSTAT5 EC50
Method: Human PBMC are isolated from buffy coat and are stored frozen for assays as needed. […] 15 μl of compound or DMSO is added to the well at the desired concentrations and incubated at 1 hr at 37 C. 15 μl of stimulus (final concentration of 1.7 ng/mL IL-12) is added for 30 minutes prior to pSTAT4 and total STAT4 analysis using cell lysates prepared and analyzed by MSD reagents as per manufacturer protocol. The final DMSO concentration of compound in the assay is 0.1%.
Cells are prepared for analysis as in the above procedure and 15 μl of GM-CSF (final concentration 5 ng/mL) is added for 20 minutes prior to pSTAT5 and total STAT5 analysis using cell lysates prepared and analyzed by MSD reagents as per manufacturer protocol. The final DMSO concentration of compound in the assay is 0.1%.

[2] = system: Tyk2-pSTAT4; assay: IL-12 induced pSTAT4 in human PBMC; assay type: cell-based; details: read-out: Tyk2-pSTAT4 EC50
Method: Human PBMC are isolated from buffy coat and are stored frozen for assays as needed. Cells for assay are thawed and resuspended in complete media containing serum, then cells are diluted to 1.67 E6 cells/ml so that 120 μl per well is 200,000 cells. 15 μl of compound or DMSO is added to the well at the desired concentrations and incubated at 1 hr at 37 C. 15 μl of stimulus (final concentration of 1.7 ng/mL IL-12) is added for 30 minutes prior to pSTAT4 and total STAT4 analysis using cell lysates prepared and analyzed by MSD reagents as per manufacturer protocol. The final DMSO concentration of compound in the assay is 0.1%.

[3] = molecular target: JAK2 (Homo sapiens (Human), UniProt O60674); assay: JAK2 activity inhibition assay (radioactive kinase assay / Caliper assay); assay type: biochemical; details: read-out: JAK2 Ki
JAK2, sequence (O60674 whole entry): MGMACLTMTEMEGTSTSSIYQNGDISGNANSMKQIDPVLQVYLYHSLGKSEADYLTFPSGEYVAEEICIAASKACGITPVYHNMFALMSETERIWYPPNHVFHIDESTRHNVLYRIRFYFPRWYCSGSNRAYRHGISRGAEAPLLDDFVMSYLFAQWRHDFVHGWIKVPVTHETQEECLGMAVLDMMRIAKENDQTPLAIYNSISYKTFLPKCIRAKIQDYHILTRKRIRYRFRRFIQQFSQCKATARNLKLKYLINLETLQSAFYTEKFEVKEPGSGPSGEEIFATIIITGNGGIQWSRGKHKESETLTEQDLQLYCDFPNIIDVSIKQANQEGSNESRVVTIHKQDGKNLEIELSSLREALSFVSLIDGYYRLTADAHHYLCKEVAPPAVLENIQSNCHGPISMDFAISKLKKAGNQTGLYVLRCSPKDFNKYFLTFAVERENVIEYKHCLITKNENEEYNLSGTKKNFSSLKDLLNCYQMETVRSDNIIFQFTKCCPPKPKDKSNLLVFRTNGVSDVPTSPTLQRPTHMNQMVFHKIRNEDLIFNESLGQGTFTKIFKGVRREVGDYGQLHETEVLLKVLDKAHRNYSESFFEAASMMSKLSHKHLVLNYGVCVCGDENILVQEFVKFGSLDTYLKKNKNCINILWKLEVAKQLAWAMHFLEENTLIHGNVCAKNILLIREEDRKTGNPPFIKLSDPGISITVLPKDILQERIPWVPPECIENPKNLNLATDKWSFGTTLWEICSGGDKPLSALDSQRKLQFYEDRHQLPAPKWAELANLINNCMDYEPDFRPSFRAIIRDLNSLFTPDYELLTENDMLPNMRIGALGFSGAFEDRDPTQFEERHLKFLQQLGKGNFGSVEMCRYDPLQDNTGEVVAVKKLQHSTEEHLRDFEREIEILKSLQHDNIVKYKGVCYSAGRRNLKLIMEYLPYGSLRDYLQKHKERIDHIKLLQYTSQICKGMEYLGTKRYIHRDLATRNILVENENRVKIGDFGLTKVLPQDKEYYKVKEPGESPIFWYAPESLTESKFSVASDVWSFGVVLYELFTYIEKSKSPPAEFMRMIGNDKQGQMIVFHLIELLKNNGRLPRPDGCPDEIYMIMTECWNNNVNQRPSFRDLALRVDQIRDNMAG
Procedure, shortened: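 Mobility-shift (Caliper) read-out of phosphorylated peptide substrate. Compound diluted in 25 mM HEPES pH 7.5, 0.01% Brij-35, 0.01% Triton, 0.5 mM EGTA; enzyme added, then peptide plus ATP in 10 mM MgCl2. Incubated 25 min at 28° C, stopped with EDTA buffer.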

[4] = molecular target: TYK2 (Homo sapiens (Human), UniProt P29597); assay: Tyk2 activity inhibition assay (radioactive kinase assay / Caliper assay); assay type: biochemical
TYK2, sequence (P29597 whole entry): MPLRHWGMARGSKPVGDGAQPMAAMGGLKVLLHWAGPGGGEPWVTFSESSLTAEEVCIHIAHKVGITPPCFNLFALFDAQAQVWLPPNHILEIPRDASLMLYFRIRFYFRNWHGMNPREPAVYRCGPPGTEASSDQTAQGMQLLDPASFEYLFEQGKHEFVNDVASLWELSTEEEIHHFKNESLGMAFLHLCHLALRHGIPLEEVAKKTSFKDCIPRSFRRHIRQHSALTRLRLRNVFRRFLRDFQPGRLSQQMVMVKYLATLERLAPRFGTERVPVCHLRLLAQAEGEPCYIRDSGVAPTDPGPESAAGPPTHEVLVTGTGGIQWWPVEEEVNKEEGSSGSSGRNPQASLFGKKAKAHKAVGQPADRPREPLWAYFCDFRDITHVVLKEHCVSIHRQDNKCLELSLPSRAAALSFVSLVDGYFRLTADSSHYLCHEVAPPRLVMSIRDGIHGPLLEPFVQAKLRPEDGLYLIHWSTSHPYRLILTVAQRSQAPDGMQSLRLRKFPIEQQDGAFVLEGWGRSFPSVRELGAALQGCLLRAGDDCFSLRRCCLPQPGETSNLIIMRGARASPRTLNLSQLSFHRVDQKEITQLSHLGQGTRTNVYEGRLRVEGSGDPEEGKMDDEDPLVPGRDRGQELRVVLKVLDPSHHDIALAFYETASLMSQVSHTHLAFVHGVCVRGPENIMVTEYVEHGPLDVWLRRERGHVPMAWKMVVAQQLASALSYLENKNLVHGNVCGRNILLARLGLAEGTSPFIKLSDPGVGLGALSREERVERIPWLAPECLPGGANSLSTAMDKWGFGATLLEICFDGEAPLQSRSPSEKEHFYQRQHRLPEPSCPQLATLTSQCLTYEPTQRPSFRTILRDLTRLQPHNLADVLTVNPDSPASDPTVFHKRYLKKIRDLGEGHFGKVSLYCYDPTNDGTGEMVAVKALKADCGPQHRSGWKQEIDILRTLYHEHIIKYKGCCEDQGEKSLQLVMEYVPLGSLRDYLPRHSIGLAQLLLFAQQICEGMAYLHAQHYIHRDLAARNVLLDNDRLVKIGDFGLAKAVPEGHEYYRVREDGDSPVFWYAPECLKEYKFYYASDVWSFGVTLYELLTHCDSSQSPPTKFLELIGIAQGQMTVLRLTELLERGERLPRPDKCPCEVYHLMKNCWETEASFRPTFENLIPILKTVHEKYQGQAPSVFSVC
Procedure, shortened: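 Radiometric format: TYK2 with peptide substrate (20 μM) and 33P-ATP at 10 μM in HEPES pH 7.5, 1% DMSO, 120 min at room temp, P81 paper capture. Caliper mobility-shift format: TYK2 9.75 nM, peptide 30 at 3 uM, ATP 16 uM (also 1 mM), 25 min at 28° C.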

[5] = GM-CSF induced pSTAT5, human PBMC
[6] = IL-12 induced pSTAT4, human PBMC

| SMILES | EC50 [1, 5] [nM] | EC50 [2, 6] [nM] | Ki [3] [nM] | Ki [4] [nM] | EC50 ([2]; Homo sapiens, PBMC) [nM] | EC50 ([1]; Homo sapiens, PBMC) [nM] |
| --- | --- | --- | --- | --- | --- | --- |
| CC1(C)OCCN(c2ccc(Nc3cc(-c4c(F)cccc4F)nc4c3C(=O)NC4)nc2)C1=O [Compound I-273, 4-(6-((2-(2,6-difluorophenyl)-5-oxo-6,7-dihydro-5H-pyrrolo[3,4-b]pyridin-4-yl)amino)pyridin-3-yl)-2,2-dimethylmorpholin-3-one] | < 2000 | < 2000 | 10 to 100 |  |  |  |
| O=C1NCc2nc(-c3c(F)cccc3F)nc(Nc3ccc([C@@H]4CCNC4=O)cc3)c21 [Compound I-87, (S)-2-(2,6-difluorophenyl)-4-((4-(2-oxopyrrolidin-3-yl)phenyl)amino)-6,7-dihydro-5H-pyrrolo[3,4-d]pyrimidin-5-] | > 20000 | < 2000 | 10 to 100 | < 10 |  |  |
| O=C1NCc2nc(-c3c(F)cccc3F)cc(Nc3ccc(N4CCOCC4=O)cn3)c21 [Compound I-248, 4-(6-((2-(2,6-difluorophenyl)-5-oxo-6,7-dihydro-5H-pyrrolo[3,4-b]pyridin-4-yl)amino)pyridin-3-yl)morpholin-3-one] | < 2000 | < 2000 | 10 to 100 |  |  |  |
| O=C1NCc2nc(-c3c(F)cccc3F)cc(Nc3ccc(N4CCOCC4)nc3)c21 [Compound I-238, 2-(2,6-difluorophenyl)-4-((6-morpholinopyridin-3-yl)amino)-6,7-dihydro-5H-pyrrolo[3,4-b]pyridin-5-one] | > 20000 | < 2000 | 100 to 1000 |  |  |  |
| CC1(O)CN(c2ccc(Nc3cc(-c4c(F)cccc4F)nc4c3C(=O)NC4)nc2)C1 [Compound I-228, 2-(2,6-difluorophenyl)-4-((5-(3-hydroxy-3-methylazetidin-1-yl)pyridin-2-yl)amino)-6,7-dihydro-5H-pyrrolo[3,4-b]pyridin-5-one] | 2000 to 20000 |  | 10 to 100 |  | < 2000 |  |
| O=C1NCc2nc(-c3c(F)cccc3F)cc(Nc3ccc(N4CC(F)(F)C4)cn3)c21 [Compound I-229, 4-((5-(3,3-difluoroazetidin-1-yl)pyridin-2-yl)amino)-2-(2,6-difluorophenyl)-6,7-dihydro-5H-pyrrolo[3,4-b]pyridin-5-one] | 2000 to 20000 |  | 10 to 100 |  | < 2000 |  |
| CC(C)N1CCN(C(=O)c2ccc(Nc3cc(-c4c(F)cccc4F)nc4c3C(=O)NC4)cc2)CC1 [Compound I-243, 2-(2,6-difluorophenyl)-4-((4-(4-isopropylpiperazine-1-carbo-nyl)phenyl)amino)-6,7-dihydro-5H-pyrrolo[3,4-b]pyridin-5-one] | 2000 to 20000 | < 2000 | 10 to 100 |  |  |  |
| CC(C)Oc1ccc(Nc2nc(-c3c(F)cccc3F)nc3c2C(=O)NC3)cc1 [Compound I-181, 2-(2,6-difluorophenyl)-4-((4-isopropoxyphenyl)amino)-6,7-dihydro-5H-pyrrolo[3,4-d]pyrimidin-5-one] | > 20000 | < 2000 | 100 to 1000 |  |  |  |
| O=C1NCc2nc(-c3c(F)cccc3F)cc(Nc3ccc(N4CCCC4)cn3)c21 [Compound I-205, 2-(2,6-difluorophenyl)-4-((5-(pyrrolidin-1-yl)pyridin-2-yl)ami-no)-6,7-dihydro-5H-pyrrolo[3,4-b]pyridin-5-one] | 2000 to 20000 | < 2000 |  |  |  |  |
| Cc1ccc(Nc2nc(-c3c(F)cccc3F)nc3c2C(=O)NC3)cc1 [Compound I-21, 2-(2,6-difluorophenyl)-4-(p-tolylamino)-6,7-dihydro-5H-pyrrolo[3,4-d]pyrimidin-5-one] |  |  |  |  | < 2000 | > 20000 |
| CC(C)N1CCN(c2ccc(Nc3cc(-c4c(F)cccc4F)nc4c3C(=O)NC4)nc2)C(=O)C1 [Compound I-242, 2-(2,6-difluorophenyl)-4-((5-(4-isopropyl-2-oxopiperazin-1-yl)pyridin-2-yl)amino)-6,7-dihydro-5H-pyrrolo[3,4-b]pyridin-5-one] | 2000 to 20000 | < 2000 | 10 to 100 |  |  |  |
| CCNC(=O)c1ccc(Nc2nc(-c3c(F)cccc3F)nc3c2C(=O)NC3)cc1 [Compound I-195, 4-((2-(2,6-difluorophenyl)-5-oxo-6,7-dihydro-5H-pyrrolo[3,4-d]pyrimidin-4-yl)amino)-N-ethylbenzamide] | > 20000 |  | 100 to 1000 |  | < 2000 |  |
| O=C1NCc2nc(-c3c(F)cccc3F)cc(Nc3ccc(N4CCN(CC(F)F)CC4)cn3)c21 [Compound I-247, 4-((5-(4-(2,2-difluoroethyl)piperazin-1-yl)pyridin-2-yl)amino)-2-(2,6-difluorophenyl)-6,7-dihydro-5H-pyrrolo[3,4-b]pyridin-5-one] | < 2000 | < 2000 | 10 to 100 |  |  |  |
| O=C1NCc2nc(-c3c(F)cccc3F)cc(Nc3ccc(N4CCN(CCC(F)(F)F)CC4)cn3)c21 [Compound I-262, 2-(2,6-difluorophenyl)-4-((5-(4-(3,3,3-trifluoropropyl)piperazin-1-yl)pyridin-2-yl)amino)-6,7-dihydro-5H-pyrrolo[3,4-b]pyridin-5-one] | < 2000 | < 2000 | 10 to 100 |  |  |  |
| CC1(C)CCC(=O)N1c1ccc(Nc2cc(-c3c(F)cccc3F)nc3c2C(=O)NC3)nc1 [Compound I-272, 2-(2,6-difluorophenyl)-4-((5-(2,2-dimethyl-5-oxopyrrolidin-1-yl)pyridin-2-yl)amino)-6,7-dihydro-5H-pyrrolo[3,4-b]pyridin-5-one] | < 2000 | < 2000 |  |  |  |  |
| O=C1NCc2nc(-c3c(F)cccc3F)cc(Nc3ccc(C(=O)N4CCCCC4)cc3)c21 [Compound I-257, 2-(2,6-difluorophenyl)-4-((4-(piperidine-1-carbonyl)phenyl)-amino)-6,7-dihydro-5H-pyrrolo[3,4-b]pyridin-5-one] | 2000 to 20000 | < 2000 | 10 to 100 |  |  |  |
| CC[C@@]1(c2ccc(Nc3nc(-c4c(F)cccc4F)nc4c3C(=O)NC4)cc2)CCNC1=O [Compound I-176, (S)-2-(2,6-difluorophenyl)-4-((4-(3-ethyl-2-oxopyrrolidin-3-yl)phenyl)amino)-6,7-dihydro-5H-pyrrolo[3,4-d]pyrimidin-5-one] | 2000 to 20000 | < 2000 | 10 to 100 |  |  |  |
| CCNC(=O)c1ccc(Nc2cc(-c3c(F)cccc3F)nc3c2C(=O)NC3)cn1 [Compound I-260, 5-((2-(2,6-difluorophenyl)-5-oxo-6,7-dihydro-5H-pyrrolo[3,4-b]pyridin-4-yl)amino)-N-ethylpicolinamide] | > 20000 | < 2000 | 100 to 1000 |  |  |  |
| CC(C)N1CCN(c2ccc(Nc3cc(-c4c(F)cccc4F)nc4c3C(=O)NC4)nc2)CC1 [Compound I-256, 2-(2,6-difluorophenyl)-4-((5-(4-isopropylpiperazin-1-yl)pyridin-2-yl)amino)-6,7-dihydro-5H-pyrrolo[3,4-b]pyridin-5-one] | < 2000 | < 2000 |  |  |  |  |
| O=C1NCc2nc(-c3c(F)cccc3F)cc(Nc3ccc(N4CCCOCC4)cn3)c21 [Compound I-253, 4-((5-(1,4-oxazepan-4-yl)pyridin-2-yl)amino)-2-(2,6-difluoro-phenyl)-6,7-dihydro-5H-pyrrolo[3,4-b]pyridin-5-one] | > 20000 | < 2000 | 10 to 100 |  |  |  |
| O=C1NCc2nc(-c3c(F)cccc3F)cc(Nc3ccc(N4CC5(COC5)C4)cn3)c21 [Compound I-144, 4-((5-(2-oxa-6-azaspiro[3.3]heptan-6-yl)pyridin-2-yl)amino)-2-(2,6-difluorophenyl)-6,7-dihydro-5H-pyrrolo[3,4-b]pyridin-5-one] |  | < 2000 | < 10 | < 10 |  |  |
| CN1CCN[C@@](C)(c2ccc(Nc3cc(-c4c(F)cccc4F)nc4c3C(=O)NC4)nc2)C1=O [Compound I-225, (S)-2-(2,6-difluorophenyl)-4-((5-(2,4-dimethyl-3-oxopiperazin-2-yl)pyridin-2-yl)amino)-6,7-dihydro-5H-pyrrolo[3,4-b]pyridin-5-one] |  |  | < 10 | < 10 |  |  |
| C[C@@H]1CCC[C@@H](C)N1c1ccc(Nc2cc(-c3c(F)cccc3F)nc3c2C(=O)NC3)nc1 [Compound I-265, 2-(2,6-difluorophenyl)-4-((5-((2R,6R)-2,6-dimethylpiperidin-1-yl)pyridin-2-yl)amino)-6,7-dihydro-5H-pyrrolo[3,4-b]pyridin-5-one] | 2000 to 20000 | < 2000 | 10 to 100 |  |  |  |
